From patent US20080103105A1, “HMG CoA REDUCTASE MEDIATED MODULATION OF NEUROGENESIS” (BrainCells, Inc., priority 2006, published 2008)
Like-named read-outs stand apart in the source and are kept apart here. Values belong to the compound of their own block, whether it stands above or below them.

What was measured:
mGluR2 = mGluR2 (Homo sapiens, UniProt Q14416); details: read-out: IC50 against mGluR2; cited from earlier work
mGluR3 = mGluR3 (Homo sapiens, UniProt Q14832); details: read-out: IC50 against mGluR3; cited from earlier work
mGluR3, sequence (Q14832 23-879): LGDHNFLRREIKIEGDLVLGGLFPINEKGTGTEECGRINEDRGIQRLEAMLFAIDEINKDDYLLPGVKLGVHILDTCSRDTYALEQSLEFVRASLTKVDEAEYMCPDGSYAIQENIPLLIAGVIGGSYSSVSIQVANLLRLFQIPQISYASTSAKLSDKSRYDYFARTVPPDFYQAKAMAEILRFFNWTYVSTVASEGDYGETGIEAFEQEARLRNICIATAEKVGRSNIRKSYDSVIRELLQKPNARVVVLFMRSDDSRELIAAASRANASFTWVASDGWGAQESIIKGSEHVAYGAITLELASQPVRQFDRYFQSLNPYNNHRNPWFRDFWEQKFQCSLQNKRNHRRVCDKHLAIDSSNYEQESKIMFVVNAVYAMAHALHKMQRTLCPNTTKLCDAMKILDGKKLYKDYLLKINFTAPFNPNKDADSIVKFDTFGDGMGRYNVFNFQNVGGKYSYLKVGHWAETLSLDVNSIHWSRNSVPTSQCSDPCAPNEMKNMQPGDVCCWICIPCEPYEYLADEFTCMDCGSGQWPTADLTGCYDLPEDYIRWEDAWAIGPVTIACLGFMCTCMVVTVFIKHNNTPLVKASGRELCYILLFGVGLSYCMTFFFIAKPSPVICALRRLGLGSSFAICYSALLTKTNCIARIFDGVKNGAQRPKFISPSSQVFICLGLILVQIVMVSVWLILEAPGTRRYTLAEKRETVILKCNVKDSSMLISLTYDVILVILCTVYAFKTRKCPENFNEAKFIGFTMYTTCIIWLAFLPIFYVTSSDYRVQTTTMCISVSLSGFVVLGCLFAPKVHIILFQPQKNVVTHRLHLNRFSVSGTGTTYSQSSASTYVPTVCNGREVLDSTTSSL

[1] = system: Group I and Group III receptors; details: at sub-mM concentrations; cited from earlier work
human mGlu2 = human mGlu2 (Homo sapiens, UniProt Q14416); details: low nanomolar range; read-out: EC50 against human mGlu2 receptors in vitro; cited from earlier work
human mGlu2, sequence (Q14416 19-872): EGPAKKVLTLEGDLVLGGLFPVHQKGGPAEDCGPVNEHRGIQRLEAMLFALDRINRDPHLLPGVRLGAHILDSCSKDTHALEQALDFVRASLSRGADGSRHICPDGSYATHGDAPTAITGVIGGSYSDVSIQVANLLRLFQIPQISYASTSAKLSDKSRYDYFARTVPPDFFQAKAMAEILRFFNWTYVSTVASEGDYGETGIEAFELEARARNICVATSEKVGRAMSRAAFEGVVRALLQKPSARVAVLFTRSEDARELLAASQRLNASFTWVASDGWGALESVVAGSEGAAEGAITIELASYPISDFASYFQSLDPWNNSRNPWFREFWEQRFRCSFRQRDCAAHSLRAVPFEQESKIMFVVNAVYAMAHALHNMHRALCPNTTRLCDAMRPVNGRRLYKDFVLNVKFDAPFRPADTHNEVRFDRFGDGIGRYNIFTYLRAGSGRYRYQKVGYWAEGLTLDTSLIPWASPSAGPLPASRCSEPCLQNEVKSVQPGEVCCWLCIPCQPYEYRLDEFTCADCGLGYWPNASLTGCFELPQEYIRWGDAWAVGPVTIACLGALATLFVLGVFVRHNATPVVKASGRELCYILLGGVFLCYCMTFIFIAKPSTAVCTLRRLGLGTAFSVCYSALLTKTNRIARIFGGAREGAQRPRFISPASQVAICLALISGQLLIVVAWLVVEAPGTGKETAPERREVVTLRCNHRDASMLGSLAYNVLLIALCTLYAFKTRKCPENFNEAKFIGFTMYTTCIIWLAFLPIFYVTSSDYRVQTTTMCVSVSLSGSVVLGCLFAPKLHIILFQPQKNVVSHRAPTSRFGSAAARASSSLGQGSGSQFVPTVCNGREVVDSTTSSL

human mGlu3 = human mGlu3 (Homo sapiens, UniProt Q14832); details: low nanomolar range; read-out: EC50 against human mGlu3 receptors in vitro; cited from earlier work
human mGlu3, sequence (Q14832 23-879): as the sequence (Q14832 23-879) above

[2] = system: KA, AMPA, and NMDA iGlu receptors; details: cited from earlier work
[3] = system: Human neural stem cells (hNSCs); experiment: Neuronal differentiation of human neural stem cells (TUJ-1 staining); format: cell-based; details: for EC50: agent alone
From the text: In one non-limiting example neurogenesis, a neurogenic response, and neurodifferentiation are all measured in an in vitro assay as follows. Human neural stem cells (hNSCs) are isolated and grown in monolayer culture, plated, treated with varying concentrations of a first neurogenic agent, or a combination of a first neurogenic agent with one or more additional neurogenic agents (test compound), and stained with TUJ-1 antibody to identify neurons and/or GFAP to identify astrocytes, as described in PCT Application No. US06/026677. Mitogen-free test media with a positive control is used for neuronal differentiation, and basal media without growth factors serves as a negative control. Neurogenesis is determined, for example, by measuring the proliferation and/or differentiation of the hNSCs in the presence of varying concentrations of test compound compared to the absence of the test compound (negative control). A neurogenic response is measured, for example, in a similar manner to neurogenesis, except that astrogenesis is also measured and the ratio of neurogenesis to astrogenesis is determined to measure the neurogenic response. Neurodifferentiation is measured, for example, by detecting neurodifferentiation specific expression markers which methods are known in the art.
(§1) Human neural stem cells (hNSCs) were isolated and grown in monolayer culture, plated, treated with varying concentrations of atorvastatin (test compound), and stained with TUJ-1 antibody, as described in U.S. Provisional Application No. 60/697,905 (U.S. Patent Publication 2007/0015138). Mitogen-free test media with a positive control for neuronal differentiation was used along with basal media without growth factors as a negative control.
as §1, with “in the presence or absence of buspirone,” for “(test compound),”, “antibody for the detection of neuronal differentiation or GFAP antibody for the detection of astrocyte differentiation,” for “antibody,”
as §1, with “in the presence or absence of ribavirin,” for “(test compound),”, “antibody for the detection of neuronal differentiation or GFAP antibody for the detection of astrocyte differentiation,” for “antibody,”
as §1, with “in the presence or absence of tacrine,” for “(test compound),”, “antibody for the detection of neuronal differentiation or GFAP antibody for the detection of astrocyte differentiation,” for “antibody,”
Human neural stem cells (hNSCs) were isolated and grown in monolayer culture, plated, treated with varying concentrations of atorvastatin in the presence or absence of azakenpaullone, and stained with TUJ-1 antibody for the detection of neuronal differentiation or GFAP antibody for the detection of astrocyte differentiation, as described in U.S. Provisional Application No. 60/697,905 (U.S. Patent Publication 2007/0015138). […]

[4] = system: BrdU positive cells within the granule cell layer of the dentate gyrus
Protocol: Male F344 rats were dosed 1× per day for 28-days with vehicle (n=12 per dose group, p.o.), 5.0 mg/kg fluoxetine (n=12 per dose group, p.o.), 15.0 mg/kg fluoxetine (n=12 per dose group, p.o.), 10.0 mg/kg atorvastatin (n=12 per dose group, p.o.) or the combination of fluoxetine (5.0 mg/kg, p.o.)+atorvastatin (10.0 mg/kg, p.o.).
Male F344 rats were dosed 1× per day for 21-days with 0 (vehicle only), 5.0 mg/kg fluoxetine (n=12 per dose group, p.o.), 15.0 mg/kg fluoxetine (n=12 per dose group, p.o.), 10.0 mg/kg atorvastatin (n=12 per dose group, p.o.) or the combination of fluoxetine (5.0 mg/kg, p.o.)+atorvastatin (10.0 mg/kg, p.o.). BrdU was administered once daily between days 9 and 14 (100 mg/kg/day, i.p., n=12 per dose group). […] Data are presented as percent change in BrdU positive cells per cubic mm dentate gyrus. […] Data are presented as the percentage of cells colabeled for BrdU and the mature neuronal marker NeuN within the dentate gyrus.

[5] = Homo sapiens, Neural stem cell, maximum fixed to 120% for all conditions, read-out: EC50, neuronal differentiation, agent alone, maximum percent of positive control fixed to a common 120%
[6] = Homo sapiens, Neural stem cell, percentage of neuronal positive control, basal media values subtracted, read-out: EC50, neuronal differentiation, agent used alone

mGluR2, sequence (Q14416 19-872): as the sequence (Q14416 19-872) above

SMILES: NC1(C(=O)O)CCc2cc(P(=O)(O)O)ccc21 (racemic) [APICA, (RS)-1-amino-5-phosphonoindan-1-carboxylic acid]
IC50 (mGluR2): ~30 µM
IC50 (mGluR3): ~30 µM
activity against Group I or Group III receptors [1]: no appreciable activity

SMILES: NC1(C(=O)O)COC2C(C(=O)O)C21 (single isomer, unassigned; (-)) [LY379268, (−)-2-Oxa-4-aminobicyclohexane-4,6-dicarboxylic acid]
EC50 (human mGlu2): < 0.01 µM
EC50 (human mGlu3): < 0.01 µM

SMILES: N[C@](CC1c2ccccc2Oc2ccccc21)(C(=O)O)[C@H]1C[C@@H]1C(=O)O [LY341495, (2S)-2-amino-2-(1S,2S-2-carboxycycloprop-1-yl)-3-(xanth-9-yl) propanoic acid]
activity against KA, AMPA, and NMDA iGlu receptors [2]: substantially inactive

SMILES: Clc1ccc2c(c1)N=C(N1CCNCC1)c1ccccc1N2 [N-desmethylclozapine]
neurogenic activity in assays as disclosed herein [3]: highly neurogenic

EC50 [3, 5]: 0.004 µM
EC50 ([3]; percentage of neuronal positive control, basal media values subtracted, read-out: EC50, neuronal differentiation, agent used alone): 0.0031 µM
SMILES: CC(C)c1c(C(=O)Nc2ccccc2)c(-c2ccccc2)c(-c2ccc(F)cc2)n1CC[C@@H](O)C[C@@H](O)CC(=O)O [atorvastatin]
neuronal differentiation, result in words ([3]; percent of neuronal positive control, combination relative to either agent alone): promoted neuronal differentiation
number of BrdU positive cells (percent change per cubic mm dentate gyrus) ([4]; 10.0 mg/kg atorvastatin p.o. 1× per day): significantly increased
number of new neurons within the granule cell layer of the dentate gyrus ([4]; atorvastatin 10.0 mg/kg p.o. alone or with fluoxetine 5.0 mg/kg p.o., 1× per day): significant increase

EC50 [3, 5]: 0.33 µM
EC50 [3, 6]: 1.1 µM
SMILES: O=C1Cc2c([nH]c3ccc(Br)cc23)-c2ncccc2N1 [azakenpaullone]
maximum percent of positive control neuronal differentiation ([3]; addition of azakenpaullone): greater than 100%

EC50 [3, 6]: 5.8 µM
SMILES: O=C1CC2(CCCC2)CC(=O)N1CCCCN1CCN(c2ncccn2)CC1 [buspirone]

EC50 [3, 6]: 4.8 µM
SMILES: Nc1nc2ncc(CNc3ccc(C(=O)N[C@@H](CCC(=O)O)C(=O)O)cc3)nc2c(=O)[nH]1 [folic acid]

EC50 [3, 6]: 3.8 µM
SMILES: NC(=O)c1ncn([C@@H]2O[C@H](CO)[C@@H](O)[C@H]2O)n1 [ribavirin]

EC50 [3, 6]: 4.5 µM
SMILES: NCCc1c[nH]c2ccc(O)cc12 [serotonin]

SMILES: Nc1c2c(nc3ccccc13)CCCC2 [tacrine]
EC50 [3, 6]: 7.4 µM
